Assay results reported in ChEMBL document CHEMBL3885881, “DrugMatrix”.

Organism: Rattus norvegicus
Test: DrugMatrix - Regimen: Daily Repeat
Assay type: toxicity, organism-based, Sprague-Dawley
Set-up: regimen Daily Repeat, gender Male, age 6-8 weeks
Settings: in vivo, po, route oral GAVAGE, vehicle .5 % CMC; for ABSOLUTE BASOPHIL / ABSOLUTE EOSINOPHIL / ABSOLUTE LYMPHOCYTE / ABSOLUTE MONOCYTE / ABSOLUTE SEGMENTED NEUTROPHIL / BASOPHIL / EOSINOPHIL / ERYTHROCYTE COUNT / HEMATOCRIT / HEMOGLOBIN / LEUKOCYTE COUNT / LYMPHOCYTE / MEAN CORPUSCULAR HEMOGLOBIN / MEAN CORPUSCULAR HEMOGLOBIN CONCENTRATION / MEAN CORPUSCULAR VOLUME / MONOCYTE / NEUTROPHIL / NUCLEATED RED BLOOD CELLS / PLATELET COUNT: tissue Blood; for ALANINE AMINOTRANSFERASE / ALBUMIN / ALKALINE PHOSPHATASE / ASPARTATE AMINOTRANSFERASE / BLOOD UREA NITROGEN / CARBON DIOXIDE / CHLORIDE / CHOLESTEROL / CREATINE PHOSPHOKINASE / CREATININE / GLUCOSE / LACTATE DEHYDROGENASE / LIPASE / PHOSPHORUS / POTASSIUM / SODIUM / TOTAL BILIRUBIN / TOTAL PROTEIN / URIC ACID: tissue Plasma
[1] = 0 mg/kg, 72 h, dose level Control, time 3 day
[2] = 0 mg/kg, 120 h, dose level Control, time 5 day
[3] = 3 mg/kg, 72 h, dose level Low, time 3 day

CC(=O)Nc1ccc2c(c1)Cc1ccccc1-2 [2-ACETYLAMINOFLUORENE]
ABSOLUTE BASOPHIL [1]: 0 CELLS/uL
ABSOLUTE EOSINOPHIL [1]: 171.33 CELLS/uL
ABSOLUTE LYMPHOCYTE [1]: 13776.5 CELLS/uL
ABSOLUTE MONOCYTE [1]: 180.83 CELLS/uL
ABSOLUTE SEGMENTED NEUTROPHIL [1]: 1121.33 CELLS/uL
BASOPHIL [1]: 0%
EOSINOPHIL [1]: 1%
ERYTHROCYTE COUNT [1]: 5.56 x10E6/uL
HEMATOCRIT [1]: 34.75%
HEMOGLOBIN [1]: 13.68 G/DL
LEUKOCYTE COUNT [1]: 15.25 x10E3/uL
LYMPHOCYTE [1]: 90.17%
MEAN CORPUSCULAR HEMOGLOBIN [1]: 24.6 pg
MEAN CORPUSCULAR HEMOGLOBIN CONCENTRATION [1]: 39.4 G/DL
MEAN CORPUSCULAR VOLUME [1]: 62.48 fL
MONOCYTE [1]: 1.17%
NEUTROPHIL [1]: 7.67%
NUCLEATED RED BLOOD CELLS [1]: 0 /100WBC
PLATELET COUNT [1]: 1342 x10E3/uL
ALANINE AMINOTRANSFERASE [1]: 49.67 u/L
ALBUMIN [1]: 4.15 G/DL
ALKALINE PHOSPHATASE [1]: 346.83 u/L
ASPARTATE AMINOTRANSFERASE [1]: 108.17 u/L
BLOOD UREA NITROGEN [1]: 17.33 mg/dL
CARBON DIOXIDE [1]: 25 mmol/L
CHLORIDE [1]: 100.83 MEQ/L
CHOLESTEROL [1]: 66.83 mg/dL
CREATINE PHOSPHOKINASE [1]: 788 u/L
CREATININE [1]: 0.18 mg/dL
GLUCOSE [1]: 151.67 mg/dL
LACTATE DEHYDROGENASE [1]: 982.5 u/L
LIPASE [1]: 10.33 u/L
PHOSPHORUS [1]: 11.23 mg/dL
POTASSIUM [1]: 6.37 MEQ/L
SODIUM [1]: 141.02 MEQ/L
TOTAL BILIRUBIN [1]: 0.18 mg/dL
TOTAL PROTEIN [1]: 5.9 G/DL
URIC ACID [1]: 1.8 mg/dL
ABSOLUTE BASOPHIL [2]: 0 CELLS/uL
ABSOLUTE EOSINOPHIL [2]: 69 CELLS/uL
ABSOLUTE LYMPHOCYTE [2]: 13632.83 CELLS/uL
ABSOLUTE MONOCYTE [2]: 139.83 CELLS/uL
ABSOLUTE SEGMENTED NEUTROPHIL [2]: 1225 CELLS/uL
BASOPHIL [2]: 0%
EOSINOPHIL [2]: 0.33%
ERYTHROCYTE COUNT [2]: 5.52 x10E6/uL
HEMATOCRIT [2]: 33.98%
HEMOGLOBIN [2]: 13.22 G/DL
LEUKOCYTE COUNT [2]: 15.07 x10E3/uL
LYMPHOCYTE [2]: 90.83%
MEAN CORPUSCULAR HEMOGLOBIN [2]: 23.95 pg
MEAN CORPUSCULAR HEMOGLOBIN CONCENTRATION [2]: 38.9 G/DL
MEAN CORPUSCULAR VOLUME [2]: 61.53 fL
MONOCYTE [2]: 0.83%
NEUTROPHIL [2]: 8%
NUCLEATED RED BLOOD CELLS [2]: 0 /100WBC
PLATELET COUNT [2]: 1196 x10E3/uL
ALANINE AMINOTRANSFERASE [2]: 49.17 u/L
ALBUMIN [2]: 4.2 G/DL
ALKALINE PHOSPHATASE [2]: 352.33 u/L
ASPARTATE AMINOTRANSFERASE [2]: 89.67 u/L
BLOOD UREA NITROGEN [2]: 18 mg/dL
CARBON DIOXIDE [2]: 27.67 mmol/L
CHLORIDE [2]: 101 MEQ/L
CHOLESTEROL [2]: 72.83 mg/dL
CREATINE PHOSPHOKINASE [2]: 417.5 u/L
CREATININE [2]: 0.18 mg/dL
GLUCOSE [2]: 150.5 mg/dL
LACTATE DEHYDROGENASE [2]: 517.33 u/L
LIPASE [2]: 9 u/L
PHOSPHORUS [2]: 11.87 mg/dL
POTASSIUM [2]: 6.57 MEQ/L
SODIUM [2]: 143.62 MEQ/L
TOTAL BILIRUBIN [2]: 0.2 mg/dL
TOTAL PROTEIN [2]: 6.08 G/DL
URIC ACID [2]: 1.45 mg/dL
ABSOLUTE BASOPHIL [3]: 0 CELLS/uL
ABSOLUTE EOSINOPHIL [3]: 75.33 CELLS/uL
ABSOLUTE LYMPHOCYTE [3]: 11859.67 CELLS/uL
ABSOLUTE MONOCYTE [3]: 186.67 CELLS/uL
ABSOLUTE SEGMENTED NEUTROPHIL [3]: 911.67 CELLS/uL
BASOPHIL [3]: 0%
EOSINOPHIL [3]: 0.67%
ERYTHROCYTE COUNT [3]: 5.43 x10E6/uL
HEMATOCRIT [3]: 34.07%
HEMOGLOBIN [3]: 13.33 G/DL
LEUKOCYTE COUNT [3]: 13.03 x10E3/uL
LYMPHOCYTE [3]: 91%
MEAN CORPUSCULAR HEMOGLOBIN [3]: 24.57 pg
MEAN CORPUSCULAR HEMOGLOBIN CONCENTRATION [3]: 39.2 G/DL
MEAN CORPUSCULAR VOLUME [3]: 62.73 fL
MONOCYTE [3]: 1.33%
NEUTROPHIL [3]: 7%
NUCLEATED RED BLOOD CELLS [3]: 0 /100WBC
PLATELET COUNT [3]: 1354.67 x10E3/uL
ALANINE AMINOTRANSFERASE [3]: 43.33 u/L
ALBUMIN [3]: 4.2 G/DL
ALKALINE PHOSPHATASE [3]: 360.33 u/L
ASPARTATE AMINOTRANSFERASE [3]: 88.67 u/L
BLOOD UREA NITROGEN [3]: 18.33 mg/dL
CARBON DIOXIDE [3]: 26.33 mmol/L
CHLORIDE [3]: 100.67 MEQ/L
CHOLESTEROL [3]: 65 mg/dL
CREATINE PHOSPHOKINASE [3]: 452 u/L
CREATININE [3]: 0.23 mg/dL
GLUCOSE [3]: 148.33 mg/dL
LACTATE DEHYDROGENASE [3]: 641.33 u/L
LIPASE [3]: 10.33 u/L
PHOSPHORUS [3]: 11.33 mg/dL
POTASSIUM [3]: 6.45 MEQ/L
SODIUM [3]: 141.2 MEQ/L
TOTAL BILIRUBIN [3]: 0.23 mg/dL
TOTAL PROTEIN [3]: 5.9 G/DL
URIC ACID [3]: 1.6 mg/dL
